Measurements from US20040077634A1, “Treatment of diseases characterized by excessive or insufficient cell death” (priority 2001, published 2004).

Key:
[1] = tested on: caspase-9, caspase-3 and caspase-7 processing; DFF45/ICAD and PARP cleavage; assay: Processing of caspases and caspase substrates in Cc/dATP-stimulated cell extract, Western blotting; format: biochemical
Experimental: Activation of endogene caspases is induced by addition of 1 mM dATP and 1 μM horse heart cytochrome c to cytosolic extract (protein concentration; 5-10 mg/ml) in the presence of DEVD-AFC and the compound (final concentration 100 μM). Activated DEVD'ases (AFC release) is measured by fluorometry in 96-well plates at 37° C. After end measurements 2× LSB-Mechaptoethanol are added to the samples for assessment of caspase processing by immunoblot analysis.
Next, the effect of the compounds on the processing of caspases and caspase substrates in the in vitro model system was analysed by Western blotting. Caspase-9, caspase-3 and caspase-7 were processed into p35, p17, and p20 active fragments, respectively, in response to Cc/dATP. Accordingly, Cc/dATP induced a threefold induction in DEVDase activity and cleavage of the caspase-3 substrates DFF45/ICAD and PARP.

[2] = tested on: caspase-3-like proteases in MCF-casp3 cells; assay: TNF-induced DEVDase activity in MCF-casp3 cells; format: cell-based; conditions: TNF 5 ng/ml, 50 μM
Experimental: (§1) The ability of compound f to inhibit cell death was examined in MCF-neo and MCF-casp3 cells. […] To analyse the mechanism of the action of compound f in alive cells, MCF-casp3 cells were treated with TNF (5 ng/ml) in the presence of 50 μM compound f and the activity of caspase-3-like proteases was measured by a DEVDase enzyme assay.

[3] = tested on: DEVDase (caspase-3-like protease); assay: Inhibition of DEVDase in cytochrome c/dATP-activated Hela cytosolic extract (method 1); format: biochemical
Experimental: Hela cells are grown in large petri dishes until subconfluency. Cells are then harvested and washed in PBS. The cell pellet is resuspended in equal volumes of ice-cold isotonic lysisbuffer (SCA; 20 mM Hepes-KOH pH 7.5, 10 mM KCl, 1.5 mM MgCl2, 1 mM EDTA, 1 mM EGTA, 250 mM sucrose, 1 mM DTT, 10 μg/ml aprotinin, 1 μg/ml leupeptin, 1 μg/ml pepstatin A, 100 μg/ml peta-block), incubated on ice for 30 min and lysed by approx. 30 strokes of a dounce homogenizer. The lysate is then centrifuged at 750 g for 10 min, and the supernatant thereof at 10,000 g for 10 min and at 20,000 g for 30 min. The clarified supernatant is removed carefully and stored in aliquots at −80° C. Activation of endogene caspases is induced by addition of 1 mM dATP and 1 μM horse heart cytochrome c to cytosolic extract (protein concentration; 5-10 mg/ml) in the presence of DEVD-AFC and the compound (final concentration 100 μM). Activated DEVD'ases (AFC release) is measured by fluorometry in 96-well plates at 37° C. After end measurements 2× LSB-Mechaptoethanol are added to the samples for assessment of caspase processing by immunoblot analysis. Percent inhibition is calculated as follows: [formula]

recombinant caspase-3 = target: T1, recombinant caspase-3 (Homo sapiens, UniProt P42574); assay: Recombinant caspase-3 activity, cleavage of DEVD-AFC; format: biochemical; conditions: 25 to 100 μM; DEVD-AFC substrate
T1 sequence (P42574 29-175 limits assumed): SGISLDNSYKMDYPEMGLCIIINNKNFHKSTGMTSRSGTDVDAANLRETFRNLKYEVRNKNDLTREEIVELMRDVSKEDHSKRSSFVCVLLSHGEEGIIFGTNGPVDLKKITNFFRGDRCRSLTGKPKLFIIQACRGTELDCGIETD
T1 sequence (P42574 176-277 limits assumed): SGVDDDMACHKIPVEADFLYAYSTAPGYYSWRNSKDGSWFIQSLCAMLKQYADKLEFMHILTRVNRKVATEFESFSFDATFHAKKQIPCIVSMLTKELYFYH
Experimental: To test if compounds a, f, and g were specific caspase inhibitors, recombinant caspase-3 and caspase-9 were incubated with the three compounds and the enzymatic activities of caspases were monitored by analysing the cleavage of the caspase-3 substrate DEVD-AFC or the caspase-9 substrate LEHD-AFC, respectively.

MCF-neo cells = assay: TNF-induced cell death of MCF-neo cells; format: cell-based
Experimental: as §1

For `O=C(Nc1cccc(C(F)(F)F)c1)Nc1cc(Cl)ccc1C(=O)O` [Compound f, [N-(2-Carboxy-5-chlorophenyl)-N′-(3-trifluoromethylphenyl)]urea], the “processing of caspase-9” value ([1]; 10 μM, compared with the vehicle control) was “slightly more procaspase-9 remained unprocessed”, the “processing of caspase-9” value ([1]; 100 μM) was “almost completely inhibited” and the “inhibition of caspase-9, -3 and -7 processing and DFF45/ICAD and PARP cleavage” value ([1]; cell extracts stimulated with Cc/dATP, Western blot, dose dependence) was “dose-dependent inhibition”. The “TNF-induced DEVDase activity” value [2] was “significantly reduced”, the “inhibition of the DEVDase activity (dose dependence)” value ([3]; cell extracts stimulated with Cc/dATP) was “dose-dependent inhibition” and the “% Inhibition” value ([3]; compound final concentration 100 μM, 1 mM dATP and 1 μM cytochrome c, DEVD-AFC) was 94%. For the same compound, the “inhibition of recombinant caspase-3 activity” value (recombinant caspase-3) was “failed to inhibit”, the “cell death induced by TNF” value (MCF-neo cells; 1 ng/ml TNF, 50 μM) was “completely blocked” and the “protection against TNF-induced cell death” value (MCF-neo cells; 5 ng/ml TNF, 50 μM) was “protection was still significant”. For the same compound, the “inhibition of TNF-induced cell death” value (MCF-neo cells; 10 ng/ml TNF) was “no inhibition”.
